Assay results from US20260315477A1, “THERAPEUTIC APPROACH TO BLOCK TERMINAL EXHAUSTION OF T CELLS AND SYNERGIZETHE EFFICACY OF T CELL IMMUNOTHERAPIES” (priority 2023, published 2026).
Entries after “also recorded” stand apart in the source; their conditions may differ.

Assays:
TEX cells = conditions: cited from earlier work
other immune cells = conditions: cited from earlier work
KDM5A and KDM5B = conditions: cited from earlier work
H3K4me3 = conditions: myeloma cells; cited from earlier work
[1] = cited from earlier work
myeloma cells = conditions: cited from earlier work
[2] = tested on: dysfunctional human CD8 T cells; assay: In vitro model of human CD8 T cell dysfunction (chronic TCR plus TGFβ1 stimulation, day 28): effector functions, polyfunctionality, memory programs; assay type: cell-based; conditions: for effector functions of human TEX cells: FIGS. 49A-49E
CT2A-gp33 glioma = CT2A-gp33 glioma model; assay type: in vivo, mouse; conditions: combined with PD-L1 blockade; CD8-KO or Rag1-KO animals, P14 CD8 T cells transferred
TBX21 locus = assay: DNA methylation at dysfunction-associated differentially methylated region, targeted Oxford Nanopore assay; assay type: cell-based, human; conditions: GSK467 with or without TGFBR1 inhibitor (Repsox)
Description: To determine whether targeting H3K4 demethylation can reduce de novo DNA methylation programs at the effector function-related genes in human CD8 T cells, the changes in DNA methylation levels were assessed at the dysfunction-associated differentially methylated region in dysfunctional human CD8 T cells after GSK467 (KDM5A/B inhibitor) with or without TGFBR1 inhibitor (Repsox) treatment.

KDM6 = conditions: cited from earlier work
P14 CD8 T cells = conditions: mouse, in vivo
[3] = tested on: Tprog, Tcyto and Tterm CD8 T cells; conditions: mouse, in vivo
B16-F10 melanoma = B16-F10 melanoma model; assay type: in vivo, mouse; conditions: 5 mg/Kg, every 2 days i.p.
Description: (§1) Targeting KDM5B in melanoma cells leads to enhanced tumor rejection by derepressing the expression of endogenous retroviral elements in tumor cells and reducing immune evasion of tumor cells. These findings provide a strong rationale for testing the in vivo efficacy of a selective KDM5A/B inhibitor as an adjunctive treatment to ICB therapy in ICB-refractory tumors. Discussed herein is whether the pharmacological inhibition of KDM5A/B recovers the responses of anti-tumor CD8 T cells to ICB treatment during solid tumors. Utilized herein are two tumor models known to be refractory to PD-1/PD-L1 blockade therapy, including orthotopic OVA-expressing PyMT breast adenocarcinoma and GP33-expressing B16-F10 melanoma in C57BL/6 animals. One week following the adoptive transfer of Thy1.1+TCR-transgenic CD8 T cells (OVA-specific OT-I or GP33-specific P14 cells) into tumor-bearing animals, mono- or combined therapy using KDM5A/Bi plus anti-PD-L 1 treatment was started (FIG. 25A-25B). Changes in tumor growth was tracked and measure the quantity, phenotype, proliferative potential, and functional capacity of adoptively transferred anti-tumor CD8 T cells measured within tumors and draining lymph nodes using spectral cytometry as described herein. […]

[4] = tested on: virus-specific exhausted CD8 T cells; assay type: in vivo, mouse
[5] = tested on: PyMT-OVA breast adenocarcinoma; assay: Orthotopic breast cancer model (PyMT-OVA breast adenocarcinoma); assay type: in vivo, mouse; conditions: combined with PD-L1 blockade, compared to PD-L1 blockade only
Description: FIGS. 16A-16C show therapeutic blockade of KDM5A and KDM5B boosts the responses of anti-tumor CD8 T cells to ICB therapy.
as §1

[6] = tested on: other Jumonji family members; conditions: cited from earlier work
[7] = tested on: tumor-specific CD8 T cells; assay: Tumor-infiltrating lymphocyte analysis in CT2A-gp33 glioma model; assay type: in vivo, mouse; conditions: combined with PD-L1 blockade
Description: CT2A-gp33 Glioma Model: The efficacy of GSK467 therapy was tested using CT2A-gp33 glioma model with gp33-specific P14 CD8 T cells adoptively transferred on day 17-20. […] (FIGS. 38A-38C)

[8] = tested on: B16-F10-GP33 melanoma cells; assay: In vitro tumor cell death of B16 melanoma cells; assay type: cell-based; conditions: 24, 48 and 72 hours, different doses
Description: Ordinary two-way ANOVA test, Dunnett's test. Error bars indicate SEM. N=4 replica of 2 independent experiments.

AML cells = assay: Tumor-killing activity of treated dysfunctional human CD8 T cells (coculture with AML cells, 18 hr); assay type: cell-based; conditions: with TGFβ1 blockade (TGFBR1 blocker); 25 μM GSK467; days 14-28
[9] = either GSK467 or C70, C70 25 μM, days 14-28

For `Nc1ncn([C@H]2C[C@H](O)[C@@H](CO)O2)c(=O)n1` [decitabine], the “response of TEX cells, with ICB therapy” value (TEX cells) is given as “synergizes with ICB therapy to rescue the response of TEX cells”, the “cytotoxicity and adverse effects” value (other immune cells) is given as “highly cytotoxic drug that has adverse effects on other immune cells” and the selectivity (other immune cells) is given as “non-selective”.

For `CCOC(=O)c1ccnc(CNCC(=O)N(CC)CCN(C)C)c1` [C70], the “KDM5A and KDM5B histone demethylase inhibition” value (KDM5A and KDM5B) is given as “potent”, the H3K4me3 levels (H3K4me3) is given as “genome-wide elevation of H3K4me3 levels” and the “cell penetration / permeability” value [1] is given as “cell-permeable”. The antiproliferative effect (myeloma cells) was “antiproliferative effect”, the “effector functions of human TEX cells” value [2] was “enhances effector functions of human TEX cells” and the “polyfunctionality and memory expression programs” value [2, 9] was “significantly enhanced polyfunctionality and memory expression programs”.

In the case of `O=c1nc(Oc2cnn(Cc3ccccc3)c2)[nH]c2cnccc12` [GSK467], the tumor control (CT2A-gp33 glioma) is given as “significant tumor control”, the “acquisition of de novo DNA methylation marks at the TBX21 locus” value (TBX21 locus) is given as “significantly reduced the acquisition of de novo DNA methylation marks at the TBX21 locus” and the Ki (KDM5A and KDM5B; role: inhibitor, stated for KDM5A and KDM5B together) is given as 0.01 µM. The IC50 (KDM5A and KDM5B; stated for KDM5A and KDM5B together) was 0.026 µM, the “inhibitory effects toward KDM6” value (KDM6) was “no measurable inhibitory effects” and the “proliferation response and long-lived memory function after ICB treatment” value (P14 CD8 T cells) was “synergized their proliferation response and promote long-lived memory function after ICB treatment”. The “cell penetration / permeability” value [1] was “cell penetrant”, the “development of Tterm cells” value [3] was “impeding the development of Tterm cells” and the “quantity of Tcyto cells” value [3] was “increased the quantity of Tcyto cells”. The “tumor control, combination” value (B16-F10 melanoma; combination with PD-L1 blockade, days 12-20) was “further potentiated with combination PD-L1 blockade therapy”, the tumor control (B16-F10 melanoma; monotherapy, days 12-20 post-tumor inoculation) was “significant tumor control” and the “expansion of IFNG-secreting virus-specific CD8 T cells” value ([4]; mouse, in vivo) was “significant expansion of both Tprog and Tcyto cells, as well as IFNG-secreting virus-specific CD8 T cells”. The “expansion of Tprog and Tcyto cells” value ([4]; mouse, in vivo) was “significant expansion of both Tprog and Tcyto cells”, the “responses of virus-specific exhausted CD8 T cells to PD-L1 blockade” value ([4]; mouse, in vivo) was “enhanced the responses of virus-specific TEX cells to PD-L1 blockade; also recorded: enhanced the responses of virus-specific exhausted CD8 T cells to PD-L1 blockade” and the “TEX cell responses to ICB during chronic LCMV infection” value ([4]; with anti-PD-L1 (FIGS. 7A-7E)) was “enhances TEX responses to ICB”. The breast tumor control [5] was “significant breast tumor control”, the “inhibitory effects toward other Jumonji family members” value [6] was “no measurable inhibitory effects” and the “frequencies of IFNG-secreting tumor-specific CD8 T cells” value [7] was “increased frequencies of IFNG-secreting tumor-specific CD8 T cells”. For the same compound, the “quantities of tumor-specific CD8 T cells” value [7] was “significant increase in the quantities of tumor-specific CD8 T cells”, the “effector functions of human TEX cells” value [2] was “enhances effector functions of human TEX cells” and the “polyfunctionality and memory expression programs” value [2, 9] was “significantly enhanced polyfunctionality and memory expression programs”. The “cytolytic activity and effector functions of dysfunctional human T cells” value ([2]; in vitro, direct effects on CD8 T cells) was “enhances the cytolytic activity and effector functions of dysfunctional human T cells”, the “effector and memory programs in dysfunctional human CD8 T cells” value ([2]; late treatment) was “can recover effector and memory programs” and the “effector cytokine secretion and expression of memory-related transcription factors” value ([2]; monotherapy, 25 μM GSK467, days 14-28) was “significantly restored effector cytokine secretion and expression of memory-related transcription factors”. For the same compound, the “polyfunctionality and memory expression programs” value ([2]; with TGFβ1 blockade (TGFBR1 blocker), 25 μM GSK467, days 14-28) was “further potentiated the reactivation of polyfunctionality and memory expression programs”, the “tumor cell death, frequencies of dead B16 melanoma cells” value [8] was “increases B16 melanoma tumor death in vitro” and the tumor-killing activity (AML cells) was “augmented tumor-killing activity”.

With `Cc1cccc(-c2[nH]ncc2-c2ccc3ncccc3n2)n1` [TGFBR1 blocker] the “effector functions of chronically stimulated CD8 T cells” value ([2]; TGFβ1 blockade alone, days 14-28) was “recovered effector functions of chronically stimulated CD8 T cells”.
